Source: ChEMBL document CHEMBL3526000 (Drug Metab Dispos, 2012)
Values belong to the molecule of their own block, whether it stands above or below them.

How the values were obtained:
Assay type in all cases: ADME
[1] = target: T1, UDP-glucuronosyltransferase 1A4 (Homo sapiens, UniProt P22310); experiment: Drug metabolism assessed as UGT1A4 activity in human liver microsome assessed as of N-glucuronidation at 25 to 200 uM incubated for 60 mins by LC-MS/MS analysis; settings: microsomes, 1 h
T1 sequence (P22310 whole entry): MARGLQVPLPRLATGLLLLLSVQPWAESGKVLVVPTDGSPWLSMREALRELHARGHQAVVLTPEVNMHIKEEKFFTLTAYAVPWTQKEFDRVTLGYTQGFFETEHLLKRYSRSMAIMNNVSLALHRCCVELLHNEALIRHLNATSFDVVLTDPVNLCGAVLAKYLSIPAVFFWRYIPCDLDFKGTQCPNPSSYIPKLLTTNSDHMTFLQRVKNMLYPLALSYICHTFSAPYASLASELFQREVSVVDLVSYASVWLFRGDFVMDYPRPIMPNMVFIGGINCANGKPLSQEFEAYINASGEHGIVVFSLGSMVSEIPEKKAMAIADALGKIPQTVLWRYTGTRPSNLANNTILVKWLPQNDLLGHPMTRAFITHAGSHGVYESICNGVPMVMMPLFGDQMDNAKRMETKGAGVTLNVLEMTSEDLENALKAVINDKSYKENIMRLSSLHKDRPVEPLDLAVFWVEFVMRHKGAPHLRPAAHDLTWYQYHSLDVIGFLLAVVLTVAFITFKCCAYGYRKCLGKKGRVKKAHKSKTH

[2] = test system: Liver microsome; experiment: Drug metabolism assessed as Sprague-Dawley rat liver microsomes assessed as compound formation treated with at 100 uM haloperidol by LC-MS/MS analysis
[3] = target: T2, UDP-glucuronosyltransferase 2B7 (Homo sapiens, UniProt P16662); experiment: Drug metabolism assessed as UGT2B7 activity in human liver microsome assessed as of O-glucuronidation at 25 to 200 uM incubated for 60 mins by LC-MS/MS analysis; settings: microsomes, 1 h
T2 sequence (P16662 whole entry): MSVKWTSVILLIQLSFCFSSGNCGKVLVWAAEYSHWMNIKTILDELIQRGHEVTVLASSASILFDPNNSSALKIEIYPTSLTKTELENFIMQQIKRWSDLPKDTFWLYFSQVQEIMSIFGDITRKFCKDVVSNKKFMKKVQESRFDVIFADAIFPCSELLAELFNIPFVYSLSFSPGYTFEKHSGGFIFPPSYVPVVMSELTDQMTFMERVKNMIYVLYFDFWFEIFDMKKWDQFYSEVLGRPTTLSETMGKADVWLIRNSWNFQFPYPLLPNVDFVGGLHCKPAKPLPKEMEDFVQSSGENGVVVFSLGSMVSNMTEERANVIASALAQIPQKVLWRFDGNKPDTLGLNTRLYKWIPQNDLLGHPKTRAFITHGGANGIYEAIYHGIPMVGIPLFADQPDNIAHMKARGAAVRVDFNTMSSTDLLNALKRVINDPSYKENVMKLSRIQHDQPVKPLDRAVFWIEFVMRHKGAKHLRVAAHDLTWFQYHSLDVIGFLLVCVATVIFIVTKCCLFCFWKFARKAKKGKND

Drug metabolism [1]: 0.26 nmol/min/mg
SMILES: CN1CCN(CCCN2c3ccccc3Sc3ccc(C(F)(F)F)cc32)CC1.Cl

Drug metabolism [2]: metabolite_detected
SMILES: O=C(CCCN1CCC(O[C@@H]2O[C@H](C(=O)O)[C@@H](O)[C@H](O)[C@H]2O)(c2ccc(Cl)cc2)CC1)c1ccc(F)cc1

Drug metabolism [3]: 0.14 nmol/min/mg
SMILES: Cc1cn([C@H]2C[C@H](N=[N+]=[N-])[C@@H](CO)O2)c(=O)[nH]c1=O [ZIDOVUDINE]
